Experimental data published in patent publication US20190142953A1, “Dendrimer-Drug Conjugates, Hydrogel Compositions, and Methods” (Massachusetts Institute of Technology, priority 2016, published 2019).
Blank lines part the entries; values can stand above or below the molecule they belong to.

Key:
[1] = test system: healthy mammary epithelial cells; assay: Cytocidal effect in healthy cells; type: cell-based; conditions: equivalent free doxorubicin concentration
Description: The next question studied was whether conjugated doxorubicin still maintained its cytotoxic effect.

[2] = Release from dendrimer:dextran hydrogel scaffold; type: physicochemical
Description: The hydrogel matrix included a 10% solid content PAMAM dendrimer, generation 5, with 75% of the amines of its surface groups oxidized to alcohols (i.e., 32 amines and 96 alcohols), and a 10% solid content dextran aldehyde (10 kDa weight average molecule weight, with 50% oxidation to aldehydes).
Free doxorubicin was released in approximately 6 days, owing to the interactions between amine groups in the drug and aldehyde groups in the dextran. When amines in the doxorubicin structure were blocked with aconitic anhydride, the drug was released rapidly through the large pores of the hydrogel in 48 hours.

[3] = In vivo organ distribution after systemic and local delivery; design: species or system mice
Experimental: An analysis was conducted of the organ distribution of both the dendritic pro-drugs and free doxorubicin after local and systemic administration. Fluorescently labelled dendritic pro-drugs of Example 5 or free drug were injected systemically and their distributions were assessed after 24 hours.

[4] = test system: triple negative breast cancer (TNBC); assay: In vivo therapeutic efficacy, murine model of triple negative breast cancer
[5] = target: T1, EGFR (Homo sapiens, UniProt P00533); assay: EGFR pathway activation (EGFR phosphorylation) by Western Blot; type: cell-based
T1 construct: endogenous in cells; host or cells: MDA-MB-468
Description: EGFR signaling pathway is believed to induce growth, differentiation, migration, adhesion, and cell survival through various interacting signaling pathways. It is believed to be critical for the design of chemotherapeutic pro-drugs utilizing this receptor to ensure this pathway was not triggered, leading to further cancer cell proliferation and survival, which could counteract the effects of the chemotherapeutic drug.
Actin was used as an internal control in all gels.

[6] = target: T1, EGFR; assay: EGF/EGFmp competition for the receptor, EGFR activation by Western Blot; type: cell-based; conditions: mix of EGF and peptide, EGFR-overexpressing cancer cells
[7] = local in hydrogel scaffold, 72-hour post-implantation

Molecule: COc1cccc2c1C(=O)c1c(O)c3c(c(O)c1C2=O)C[C@@](O)(C(=O)CO)C[C@@H]3O[C@H]1C[C@H](N)[C@H](O)[C@H](C)O1 [free doxorubicin, doxorubicin]
cell death [1]: over 90%
time to release from hydrogel [2]: approximately 6 days
circulating level in blood ([3]; after local delivery): No circulating drug or dendritic pro-drug were observed in the blood
level in blood (fluorescence) ([3]; after systemic administration): not statistically different than that of the untreated control
accumulation in other organs [3, 7]: no accumulation was observed in other organs
tumor accumulation, local therapy versus systemic administration [3, 7]: 5 times
accumulation in other organs (spleen, heart, lungs, liver, kidneys) ([3]; systemic injection, 24 hours): no significant accumulation was observed in any other organ
tumor shrinkage compared to untreated control ([4]; local in hydrogel, multiple doses (days 0, 11, 22), bioluminescence): 69%
tumor reduction compared to untreated control ([4]; systemic administration): did not exhibit significant tumor volume reduction

EGFR phosphorylation / pathway activation [5]: none were observed
blocking of EGF-mediated EGFR activation [6]: did not behave as an EGF antagonist
Molecule: NH2—CGGGGAEYLR-COOH (H-CGGGGAEYLR-OH) [EGFmp, EGF mimicking peptide modified with four glycine residues terminated with a cysteine]
